For three compounds, EC50 results are on record in US8288386B2, “Melanocortin receptor agonists” (LG Life Sciences Ltd., priority 2008, dated 2012).

Each structure is given as a SMILES string.

As a reminder, the EC50 is the concentration giving half of the maximal effect.

The target of the experiment is T1, MC4R (Homo sapiens, UniProt P32245).
T1 construct: expressed in transfected cells; host or cells: HEK (Human Embryonic Kidney) permanent expression cell line HEK MC4R-Luc, with CRE-LUC reporter
T1 sequence (P32245 whole entry, species assumed): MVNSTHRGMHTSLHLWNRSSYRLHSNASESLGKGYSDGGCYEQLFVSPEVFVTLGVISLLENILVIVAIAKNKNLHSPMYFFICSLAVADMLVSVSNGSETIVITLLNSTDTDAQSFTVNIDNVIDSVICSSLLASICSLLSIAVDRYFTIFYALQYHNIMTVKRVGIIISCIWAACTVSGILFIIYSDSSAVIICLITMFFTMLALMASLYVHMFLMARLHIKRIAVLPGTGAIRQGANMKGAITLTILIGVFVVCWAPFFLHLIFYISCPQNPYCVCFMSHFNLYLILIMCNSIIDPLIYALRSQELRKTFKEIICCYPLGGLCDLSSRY
Put plainly: MCR agonistic activity (luciferase assay / cAMP accumulation assay) in HEK MC4R-Luc cells. Format: cell-based. The settings on record: agonistic activity to MC4R; ranges given; read-out: EC50 value in the range. The protocol:
Physiological activity of the compounds of the present invention was assessed by measuring agonistic activity as well as binding activity for melanocortin receptors (MCR) according to methods A and B explained as follows.
As one of the methods to measure MCR agonistic activity of the compound according to the present invention, the expression level of a marker gene (for example, luciferase) which increases proportionally according to the increase of cAMP content in the cell, was measured.
First, permanent expression HEK (Human Embryonic Kidney) cell lines (HEK MC1R-Luc, MC3R-Luc, MC4R-Luc or MC5R-Luc) expressing the MCR gene of each subtype together with luciferase gene (CRE-LUC) under the control of CRE (cAMP Response Element) were constructed. The above cell lines were incubated in an incubator with 6% CO2 atmosphere at 37° C. using selection medium, DMEM (Dulbecco's Modified Eagles Medium) containing 10% heat-inactivated fetal bovine serum (Gibco/BRL), 100 unit/ml, penicillin (Gibco/BRL), 100 unit/ml streptomycin (Gibco/BRL), and 200 μg/ml geneticin (G418) (Gibco/BRL). […] After allowing the treated cells to be at room temperature for 15 minutes, luminescence was measured for each well by using luminometer (Victor). The level of luminescence induced by the stepwise-diluted agonist was converted to relative % value to those by the treatment of 10 μM NDP-MSH. […]
As another method to measure MCR agonistic activity of the compound according to the present invention, an increase of cAMP amount in the cell was measured.
First, permanent expression HEK (Human Embryonic Kidney) cell lines (HEK MC1R-Luc, MC3R-Luc, MC4R-Luc or MC5R-Luc) expressing the MCR gene of each subtype were plated onto each well of 24-well culture plates for Luminometer (Costar) with a concentration of 2×10^5 cell in 1 ml culture medium for each well, and then incubated in an incubator with 6% CO2 atmosphere at 37° C. for 24 hours. […] Then, the cAMP amount in each cell was measured using Amersham cAMP assay Kit (TRK432). […]
For orientation: Changes in cAMP serve as a functional read-out for many G protein-coupled receptors.

For the compound `CN1CCN(C(=O)[C@@H]2C[C@H](N(C(=O)c3ccco3)c3ccc(F)cc3F)CN2C(=O)[C@@H]2CN(C(C)(C)C)C[C@H]2c2ccc(F)cc2F)CC1` [Example 84, N-{(3S,5S)-1-{[(3S,4R)-1-tert-butyl-4-(2,4-difluorophenyl)pyrrolidin-3-yl]carbonyl}-5-[(4-methylpiperazin-1-yl)carbonyl]pyrrolidin-3-yl}-N-(2,4-difluorophenyl)-2-furamide], the EC50 was in the range of 0.1 to 1 µM.
With `CC(=O)N(C1CCC(F)(F)CC1)[C@H]1C[C@@H](C(=O)N2CCN(C)CC2)N(C(=O)[C@@H]2CN(C(C)(C)C)C[C@H]2c2ccc(Cl)cc2)C1` [Example 27, N-{(3S,5S)-1-{[(3S,4R)-1-tert-butyl-4-(4-chlorophenyl)pyrrolidin-3-yl]carbonyl}-5-[(4-methylpiperazin-1-yl)carbonyl]pyrrolidin-3-yl}-N-(4,4-difluorocyclohexyl)acetamide] the figure was 0.1 to 1 µM.
`CC(C)C(=O)N(c1ccc(F)cc1F)[C@H]1C[C@@H](C(=O)N2CCN(C)CC2)N(C(=O)[C@@H]2CN(C(C)(C)C)C[C@H]2c2ccc(Cl)cc2)C1` [Example 79, N-{(3S,5S)-1-{[(3S,4R)-1-tert-butyl-4-(4-chlorophenyl)pyrrolidin-3-yl]carbonyl}-5-[(4-methylpiperazin-1-yl)carbonyl]pyrrolidin-3-yl}-N-(2,4-difluorophenyl)-2-methylpropanamide]: the EC50 lay in the range of 0.01 to 0.1 µM.
